From patent US20230271950A1, “ANTIBACTERIAL PICOLINAMIDE COMPOUNDS” (University of Notre Dame Du Lac, priority 2020, published 2023)
≈ marks a conversion by molar mass, not a printed value. Read-outs that look alike come from different tables or passages of the source.

What was measured:
MRSA (NRS70, NRS119) = experiment: MIC against MRSA strains; assay type: cell-based, Staphylococcus aureus; settings: for MIC: Staphylococcus aureus
C. difficile = experiment: MIC by broth microdilution against C. difficile strains; assay type: cell-based, Clostridioides difficile; settings: for MIC: Clostridioides difficile; for MIC C. difficile: ATCC 43255, ribotype 087; for Selectivity: MIC MRSA/MIC C. difficile, Table 3
[1] = NRS70 strain, Table 2 (SAR^1), read-out: MIC MRSA
[2] = ATCC43255, ATCC 43255, ribotype 087, Table 2 (SAR^1), read-out: MIC C. difficile
[3] = MRSA strain NRS70, read-out: MIC against MRSA
[4] = ATCC43255, C. difficile ATCC 43255, read-out: MIC against C. difficile
[5] = NRS70 strain, Table 3 (SAR^2 and SAR^3), read-out: MIC MRSA
[6] = ATCC43255, ATCC 43255, ribotype 087, Table 3 (SAR^2 and SAR^3), read-out: MIC C. difficile
[7] = ATCC43255, C. difficile ATCC43255, FIG. 2 legend, read-out: MIC of positive controls

Row | Compound | MIC (MRSA (NRS70, NRS119); [1]) [µg/mL] | MIC (C. difficile; [2]) [µg/mL] | MIC (MRSA (NRS70, NRS119); [5]) [µg/mL] | MIC (C. difficile; [6]) [µg/mL] | Selectivity (C. difficile) | also measured
1 | CCOC(=O)c1coc(NC(=O)c2ccnc(-c3ccc(Cl)c(Cl)c3)c2)n1 [Compound 15, Ethyl 2-(2-(3,4-dichlorophenyl)isonicotinamido)oxazole-4-carboxylate] | 1 (≈ 2.46 µM) | 0.125 (≈ 0.308 µM) | – | – | – | –
2 | O=C(Nc1nccs1)c1ccnc(-c2ccc(Cl)c(Cl)c2)c1 [Compound 16, 2-(3,4-Dichlorophenyl)-N-(thiazol-2-yl)isonicotinamide] | ≥ 256 | ≥ 128 | – | – | – | MIC (MRSA (NRS70, NRS119); [3]): ≥ 64 µg/mL; MIC (C. difficile; [4]): ≥ 64 µg/mL
3 | O=C(Nc1ncc[nH]1)c1ccnc(-c2ccc(Cl)c(Cl)c2)c1 [Compound 17, 2-(3,4-Dichlorophenyl)-N-(1H-imidazol-2-yl)isonicotinamide] | ≥ 256 | ≥ 128 | – | – | – | MIC (MRSA (NRS70, NRS119); [3]): ≥ 64 µg/mL; MIC (C. difficile; [4]): ≥ 64 µg/mL
4 | O=C(Nc1ccon1)c1ccnc(-c2ccc(Cl)c(Cl)c2)c1 [Compound 18, 2-(3,4-Dichlorophenyl)-N-(isoxazol-3-yl)isonicotinamide] | ≥ 256 | ≥ 128 | – | – | – | MIC (MRSA (NRS70, NRS119); [3]): ≥ 64 µg/mL; MIC (C. difficile; [4]): ≥ 64 µg/mL
5 | Cc1nnc(NC(=O)c2ccnc(-c3ccc(Cl)c(Cl)c3)c2)o1 [Compound 19, 2-(3,4-Dichlorophenyl)-N-(5-methyl-1,3,4-oxadiazol-2-yl)isonicotinamide] | ≥ 256 | 64 (≈ 183 µM) | – | – | – | MIC (MRSA (NRS70, NRS119); [3]): ≥ 64 µg/mL; MIC (C. difficile; [4]): ≥ 64 µg/mL
6 | CNC(=O)c1ccnc(-c2ccc(Cl)c(Cl)c2)c1 [Compound 20, 2-(3,4-Dichlorophenyl)-N-methylisonicotinamide] | ≥ 256 | 64 (≈ 228 µM) | – | – | – | MIC (MRSA (NRS70, NRS119); [3]): ≥ 64 µg/mL; MIC (C. difficile; [4]): ≥ 64 µg/mL
7 | O=C(Nc1nc2ncccc2o1)c1ccnc(-c2ccc(Cl)c(Cl)c2)c1 [Compound 22, 2-(3,4-Dichlorophenyl)-N-(oxazolo[4,5-b]pyridin-2-yl)isonicotinamide] | 0.25 (≈ 0.649 µM) | 0.0625 (≈ 0.162 µM) | – | – | – | –
8 | CCOC(=O)c1cnc(NC(=O)c2ccnc(-c3ccc(Cl)c(Cl)c3)c2)o1 [Compound 23, Ethyl 2-(2-(3,4-dichlorophenyl)isonicotinamido)oxazole-5-carboxylate] | 0.06 (≈ 0.148 µM) | 0.0625 (≈ 0.154 µM) | – | – | – | –
9 | O=C(Nc1ncc(C(=O)O)o1)c1ccnc(-c2ccc(Cl)c(Cl)c2)c1 [Compound 24, 2-(2-(3,4-Dichlorophenyl)isonicotinamido)oxazole-5-carboxylic acid] | 64 (≈ 169 µM) | 128 (≈ 338 µM) | – | – | – | –
10 | C#CCCCCCOC(=O)c1cnc(NC(=O)c2ccnc(-c3ccc(Cl)c(Cl)c3)c2)o1 [Compound 25, Hept-6-yn-1-yl 2-(2-(3,4-dichlorophenyl)isonicotinamido)oxazole-5-carboxylate] | 0.06 (≈ 0.127 µM) | 0.25 (≈ 0.529 µM) | – | – | – | –
11 | O=C(Nc1ncc(C(=O)OCCCCCCO)o1)c1ccnc(-c2ccc(Cl)c(Cl)c2)c1 [Compound 26, 6-Hydroxyhexyl 2-(2-(3,4-dichlorophenyl)isonicotinamido)oxazole-5-carboxylate] | 0.25 (≈ 0.523 µM) | 0.25 (≈ 0.523 µM) | – | – | – | –
12 | CC(C)(C)OC(=O)NCCCCCCOC(=O)c1cnc(NC(=O)c2ccnc(-c3ccc(Cl)c(Cl)c3)c2)o1 [Compound 27, 6-((Tert-butoxycarbonyl)amino)hexyl 2-(2-(3,4-dichlorophenyl)isonicotinamido) oxazole-5-carboxylate] | – | – | – | – | – | MIC MRSA (MRSA (NRS70, NRS119); NRS70 strain, Table 2 (SAR^1)): 16 µg/mL (≈ 27.7 µM); MIC C. difficile (C. difficile; Table 2 (SAR^1)): 8 µg/mL (≈ 13.9 µM)
13 | O=C(Nc1ncc(C(=O)N2CCOCC2)o1)c1ccnc(-c2ccc(Cl)c(Cl)c2)c1 [Compound 29, 2-(3,4-Dichlorophenyl)-N-(5-(morpholine-4-carbonyl)oxazol-2-yl)isonicotinamide] | 2 (≈ 4.47 µM) | 0.125 (≈ 0.279 µM) | – | – | – | –
14 | CC(C)(C)OC(=O)N1CCN(C(=O)c2cnc(NC(=O)c3ccnc(-c4ccc(Cl)c(Cl)c4)c3)o2)CC1 [Compound 30, Tert-butyl 4-(2-(2-(3,4-Dichlorophenyl)isonicotinamido)oxazole-5-carbonyl) piperazine-1-carboxylate] | – | – | – | – | – | MIC MRSA (MRSA (NRS70, NRS119); NRS70 strain, Table 2 (SAR^1)): 2 µg/mL (≈ 3.66 µM); MIC C. difficile (C. difficile; Table 2 (SAR^1)): 0.25 µg/mL (≈ 0.458 µM)
15 | Cl.Cl.O=C(Nc1ncc(C(=O)N2CCNCC2)o1)c1ccnc(-c2ccc(Cl)c(Cl)c2)c1 [Compound 31, 2-(3,4-Dichlorophenyl)-N-(5-(piperazine-1-carbonyl)oxazol-2-yl)isonicotinamide dihydrochloride] | 16 | 8 | – | – | – | –
16 | O=C(Nc1ncco1)c1ccnc(-c2ccccc2Cl)c1 [Compound 34, 2-(2-Chlorophenyl)-N-(oxazol-2-yl)isonicotinamide] | – | – | 8 (≈ 26.7 µM) | 4 (≈ 13.3 µM) | 2 | –
17 | O=C(Nc1ncco1)c1ccnc(-c2ccccc2F)c1 [Compound 38, 2-(2-Fluorophenyl)-N-(oxazol-2-yl)isonicotinamide] | – | – | 1 (≈ 3.53 µM) | 4 (≈ 14.1 µM) | 0.25 | –
18 | O=C(Nc1ncco1)c1ccnc(-c2cc(F)cc(F)c2)c1 [Compound 42, 2-(3,5-Difluorophenyl)-N-(oxazol-2-yl)isonicotinamide] | – | – | 8 (≈ 26.6 µM) | 0.5 (≈ 1.66 µM) | 16 | –
19 | O=C(Nc1ncco1)c1ccnc(-c2ccc([N+](=O)[O-])cc2)c1 [Compound 49, 2-(4-Nitrophenyl)-N-(oxazol-2-yl)isonicotinamide] | – | – | 64 (≈ 206 µM) | 1 (≈ 3.22 µM) | 64 | –

Row | Compound | MIC (MRSA (NRS70, NRS119); [1]) [µg/mL] | MIC (C. difficile; [2]) [µg/mL] | MIC (MRSA (NRS70, NRS119); [5]) [µg/mL] | MIC (C. difficile; [6]) [µg/mL] | Selectivity (C. difficile) | also measured
20 | O=C(Nc1ncco1)c1ccnc(-c2cccc([N+](=O)[O-])c2)c1 [Compound 50, 2-(3-Nitrophenyl)-N-(oxazol-2-yl)isonicotinamide] | – | – | ≥ 256 | 2 (≈ 6.45 µM) | ≥128 | –
21 | COc1ccc(-c2cc(C(=O)Nc3ncco3)ccn2)cc1 [Compound 51, 2-(4-Methoxyphenyl)-N-(oxazol-2-yl)isonicotinamide] | – | – | 8 (≈ 27.1 µM) | 4 (≈ 13.5 µM) | 2 | –
22 | CC(C)Oc1ccc(-c2cc(C(=O)Nc3ncco3)ccn2)cc1 [Compound 52, 2-(4-Isopropoxyphenyl)-N-(oxazol-2-yl)isonicotinamide] | – | – | 4 (≈ 12.4 µM) | 2 (≈ 6.19 µM) | 2 | –
23 | COc1ccc(-c2cc(C(=O)Nc3ncco3)ccn2)cc1OC [Compound 53, 2-(3,4-Dimethoxyphenyl)-N-(oxazol-2-yl)isonicotinamide] | – | – | 64 (≈ 197 µM) | 16 (≈ 49.2 µM) | 4 | –
24 | COc1ccc(-c2cc(C(=O)Nc3ncco3)ccn2)cc1Cl [Compound 54, 2-(3-Chloro-4-methoxyphenyl)-N-(oxazol-2-yl)isonicotinamide] | – | – | 1 (≈ 3.03 µM) | 0.5 (≈ 1.52 µM) | 2 | –
25 | N#Cc1cccc(-c2cc(C(=O)Nc3ncco3)ccn2)c1 [Compound 55, 2-(3-Cyanophenyl)-N-(oxazol-2-yl)isonicotinamide] | – | – | 32 (≈ 110 µM) | 4 (≈ 13.8 µM) | 8 | –
26 | O=C(Nc1ncco1)c1ccnc(-c2ccc(OCc3ccccc3)cc2)c1 [Compound 56, 2-(4-(Benzyloxy)phenyl)-N-(oxazol-2-yl)isonicotinamide] | – | – | 8 (≈ 21.5 µM) | 4 (≈ 10.8 µM) | 2 | –
27 | O=C(Nc1ncco1)c1ccnc(-c2cccc(OCc3ccccc3)c2)c1 [Compound 57, 2-(3-(Benzyloxy)phenyl)-N-(oxazol-2-yl)isonicotinamide] | – | – | 1 (≈ 2.69 µM) | 0.5 (≈ 1.35 µM) | 2 | –
28 | CC(C)(C)OC(=O)Nc1ccc(-c2cc(C(=O)Nc3ncco3)ccn2)cc1 [Compound 58, Tert-butyl (4-(4-(oxazol-2-ylcarbamoyl)pyridin-2-yl)phenyl)carbamate] | – | – | 8 (≈ 21 µM) | 8 (≈ 21 µM) | 1 | –
29 | CC(C)(C)OC(=O)Nc1cccc(-c2cc(C(=O)Nc3ncco3)ccn2)c1 [Compound 59, Tert-butyl (3-(4-(oxazol-2-ylcarbamoyl)pyridin-2-yl)phenyl)carbamate] | – | – | 4 (≈ 10.5 µM) | 8 (≈ 21 µM) | 0.5 | –
30 | O=C(Nc1ncco1)c1ccnc(-c2ccccc2)c1 [Compound 60, N-(Oxazol-2-yl)-2-phenylisonicotinamide] | – | – | 8 (≈ 30.2 µM) | 8 (≈ 30.2 µM) | 1 | –
31 | O=C(Nc1ncco1)c1ccnc(-c2cnc3ccccc3c2)c1 [Compound 61, N-(Oxazol-2-yl)-2-(quinolin-3-yl)isonicotinamide] | – | – | 16 (≈ 50.6 µM) | 4 (≈ 12.6 µM) | 4 | –
32 | O=C(Nc1ncco1)c1ccnc(N2CCOCC2)c1 [Compound 62, 2-Morpholino-N-(oxazol-2-yl)isonicotinamide] | – | – | 128 (≈ 467 µM) | 128 (≈ 467 µM) | 1 | –
33 | O=C(Nc1ncco1)c1ccnc(C(F)(F)F)c1 [Compound 63, N-(Oxazol-2-yl)-2-(trifluoromethyl)isonicotinamide] | – | – | 16 (≈ 62.2 µM) | 4 (≈ 15.6 µM) | 4 | –
34 | O=C(Nc1ncco1)c1ccnc(OCCC(F)(F)F)c1 [Compound 65, N-(Oxazol-2-yl)-2-(3,3,3-trifluoropropoxy)isonicotinamide] | – | – | 8 (≈ 26.6 µM) | 4 (≈ 13.3 µM) | 2 | –
35 | O=C(Nc1ncco1)c1ccnc(-c2ccc(F)c(Cl)c2)c1F [Compound 67, 2-(3-Chloro-4-fluorophenyl)-3-fluoro-N-(oxazol-2-yl)isonicotinamide] | – | – | 1 (≈ 2.98 µM) | 1 (≈ 2.98 µM) | 1 | –
36 | CC(=O)NC[C@H]1CN(c2ccc(N3CCOCC3)c(F)c2)C(=O)O1 [linezolid, reference compound] | – | – | – | – | – | MIC (C. difficile; [7]): 2 µg/mL
37 | CO[C@H]1/C=C/O[C@@]2(C)Oc3c(C)c(O)c4c(O)c(c5c(nc6cc(C)ccn65)c4c3C2=O)NC(=O)/C(C)=C\C=C\[C@H](C)[C@H](O)[C@@H](C)[C@@H](O)[C@@H](C)[C@H](OC(C)=O)[C@@H]1C [rifaximin, reference compound] | – | – | – | – | – | MIC (C. difficile; [7]): 0.03 µg/mL
